Entries after “also recorded” stand apart in the source; their conditions may differ. Where two headings read alike, the source gives them in different places.
What was measured:
[1] = tested on: bronchoconstriction caused by acetylcholine; assay: Anti-bronchoconstriction, anaesthetized guinea-pig, acetylcholine i.v. (Konzett and Rossler); format: in vivo; details: for ED50: Cavia porcellus, iv, compound i.v., read-out: DE 50 (the source's name); for activity by route of administration: i.v. and i.d.; for anti-bronchoconstriction properties (in words): guinea-pig, comparison with compound of patent No 3 862 177
Procedure: (§1) Injected intravenously or intraduodenally, the compounds of formula (I) are capable of opposing bronchoconstriction caused in a guinea-pig anaesthetized with ethylurethane at 20 % (1.5 g/kg intraperitoneally) by intravenous injection of histamine ([…]/i.v.), of acetylcholine (40 μg/kg/i.v.), of bradykinine (5 μg/kg/i.v.) or of serotinine (20 μg/kg/i.v.).
(§2) .- The anti-bronchoconstriction properties were studied in an anaesthetized guinea-pig and in a vigil guinea-pig.
(§3) The antagonism exercised by the products studied to a bronchoconstriction due to an intravenous injection of acetylcholine, histamine or bradykinine was evaluated according to Konzett and Rossler's method.
(§4) The products studied were administered intraduodenally or intravenously.

[2] = tested on: bronchoconstriction caused by bradykinine; assay: Anti-bronchoconstriction, anaesthetized guinea-pig, bradykinine i.v. (Konzett and Rossler); format: in vivo
Procedure: as §1, §2, §3, §4

[3] = tested on: morphinic respiratory depression; assay: Respiratory analeptic properties, vigil rabbit, morphinic respiratory depression; format: in vivo; details: for respiratory analeptic activity (in words): i.v., vigil rabbit, comparison with reference compound
Procedure: The compounds of formula (I) administered intravenously to a vigil rabbit, are capable of opposing morphinic respiratory depression (subcutaneous injection of 50 mg/kg of morphine hydrochloride).
.- Respiratory analeptic properties were studied in a vigil rabbit subjected to a morphinic respiratory depression. The products studied were administered intravenously.

constraint ulcers = assay: Constraint ulcers, rat, 7 hours; format: in vivo
Procedure: (a) Constraint ulcers: the compounds of formula (I), administered orally, reduce the area of ulcerations caused in a rat placed under constraint. Thus, compound No 73 0466 administered at a dose of 5 mg/kg/po, reduces by 78% the area of the ulcerations caused by being put under constraint for 7 hours.
(§5) .- The anti-ulcerous activity was evaluated by the percentage of protection (quantal response) against ulcers caused in a rat by binding the pylorus or by putting under constraint for 7 hours.
(§6) The products were administered intraduodenally (Shay's ulcer) or orally (constraint ulcer).

Shay's ulcers = assay: Shay's ulcers, rat, binding the pylorus; format: in vivo; details: for anti-ulcerous properties (in words): comparison with compound No. 7110 / patent No 3 862 177
Procedure: (b) Shay's ulcers: the compounds of formula (I) administered intraduodenally reduce the area of ulcerations induce in a rat by binding the pylorus. Thus, compound code No 73 0466 administered in a dose of 20 mg/kg/i.d. reduces by 80 % Shay's ulcer.
as §5, §6

gastric secretion [4] = assay: Gastric antisecretory activity, vigil rat, pyloric binding for 4 hours; format: in vivo; details: for ED50: Rattus norvegicus, 4 h, i.d.; for gastric antisecretory properties (in words): comparison with compound No. 7110 / patent No 3 862 177
Procedure: .- The gastric antisecretory activity was studied in a vigil rat fitted with a pyloric binding for 4 hours, according to Shay and al.
It was evaluated by diminutions in the volume, the concentration and the flow of free acid in the gastric juice. The compounds tested were administered intraduodenally.

Acute toxicity, mouse = details: in vivo
[5] = tested on: bronchoconstriction caused by histamine; assay: Anti-bronchoconstriction, anaesthetized guinea-pig, histamine i.v. (Konzett and Rossler); format: in vivo; details: for Percentage of inhibition of the bronchoconstriction: histamine
Procedure: as §1, §2, §3, §4

[6] = tested on: bronchoconstriction caused by serotonine; assay: Anti-bronchoconstriction, anaesthetized guinea-pig, serotonine i.v.; format: in vivo; details: Cavia porcellus, iv, compound i.v., read-out: DE 50 (the source's name)
Procedure: as §1

[7] = tested on: bronchospasm caused by histamine aerosol; assay: Protection of vigil guinea-pig against histamine aerosol bronchospasm; format: in vivo
Procedure: These properties are also observed by administering the compounds of formula (I) orally, to a vigil guinea-pig subjected to a histamine aerosol (exposition for 10 minutes to an aerosol obtained from an aqueous solution containing 0.4 % histamine and 10 % glycerine), the criterium of activity being the total protection from the fall caused by the bronchospasm.

[8] = tested on: bronchospasm caused by acetylcholine aerosol; assay: Protection of vigil guinea-pig against acetylcholine aerosol bronchospasm; format: in vivo
[9] = tested on: contractural action of histamine on the ileum; assay: Spasmolytic, ileum of guinea-pig, histamine
Procedure: (§7) Compound code number 73 0457, introduced into the conserving medium, is capable of opposing the contractural action of histamine and bradykinine on the ileum of a guinea-pig, DI 50 being respectively 0.16 μg/ml and 3.1 μg/ml, prevents spasms in the uterus of a female rat induced by serotonine (DI 50= 0.8 μg/ml) and opposes the contracting effect of acetylcholine on the duodenum of a rat (DI 50= 0.8μg/ml).

[10] = tested on: contractural action of bradykinine on the ileum; assay: Spasmolytic, ileum of guinea-pig, bradykinine
Procedure: as §7

[11] = tested on: spasms in the uterus induced by serotonine; assay: Spasmolytic, uterus of female rat, serotonine
Procedure: as §7

[12] = tested on: contracting effect of acetylcholine on the duodenum; assay: Spasmolytic, duodenum of rat, acetylcholine
Procedure: as §7

gastric secretion [13] = assay: Gastric antisecretory properties, anaesthetized rat with Shay binding; format: in vivo; details: 2 mg/kg i.d.
Excerpt: The compounds of formula (I), administered intraduodenally to an anaesthetized rat provided with a Shay binding are capable of reducing the gastric secretion.

[14] = acetylcholine, anaesthetized guinea-pig
[15] = read-out: Gastric antisecretory action, Volume, D.E. 50
[16] = po, 2000 mg/kg, p.o., 2 000 mg/kg, read-out: Percentage mortality, orally
[17] = acetylcholine i.v., 25 mg/kg i.d.

O=C(CCn1c(CN2CCN(CC=Cc3ccccc3)CC2)nc2ccccc21)c1ccccc1 [7 110, reference compound]
ED50 ([1]; acetylcholine i.v.): 2.4 mg/kg
Anti-bronchoconstriction action ([1]; acetylcholine i.v., 30 mg/kg i.d.): 0
activity by route of administration [1, 14]: acts solely intravenously
ED50 ([2]; Cavia porcellus, bradykinine i.v., compound i.d., read-out: D.E. 50 (the source's name)): 30 mg/kg
Duration of effect ([3]; 4 mg/kg i.v.): 0 min
Percentage increase, respiratory amplitude ([3]; 4 mg/kg i.v.): 0%
Percentage increase, respiratory frequency ([3]; 4 mg/kg i.v.): 0%
ED50 (constraint ulcers; Rattus norvegicus, po, 7 h, p.o., read-out: Anti-ulcerous action, Constraint ulcer for 7 hours, D.E. 50): 4.2 mg/kg
ED50 (Shay's ulcers; Rattus norvegicus, i.d., read-out: Anti-ulcerous action, Shay's ulcer, D.E. 50): 28.5 mg/kg
ED50 (gastric secretion [4]; [15]): 2.5 mg/kg
mortality (Acute toxicity, mouse; po, 4800 mg/kg, p.o., 4 800 mg/kg, read-out: Acute toxicity (p.o.), percentage mortality): 30%

O=C(CCn1c(CN2CCN(CC=Cc3ccccc3)CC2)nc2ccccc21)c1ccco1 [73 0457, dimaleate of 1-[2'-(α-furoyl)eth-1' yl]-2-(4"-cinnamylpiperazin 1" ylmethyl) benzimidazole]
Percentage of inhibition of the bronchoconstriction ([5]; 12.5 mg/kg i.d.): 100%
ED50 ([1]; acetylcholine i.v.): < 4 mg/kg
Anti-bronchoconstriction action, percentage ([1]; acetylcholine i.v., 0.0625 mg/kg i.v.): 63%
Percentage of inhibition of the bronchoconstriction ([1]; acetylcholine, 12.5 mg/kg i.d.): 70%
Duration ([1]; acetylcholine, 12.5 mg/kg i.d., Table I): > 90 min
Duration ([1]; acetylcholine, 12.5 mg/kg i.d., Table IV): > 90 min
times lower active dose than that of compound No. 7110 [1, 14]: 38 times
activity by route of administration [1, 14]: active in this same test, not only when administered intravenously but intraduodenally
anti-bronchoconstriction properties (in words) [1]: considerable anti-bronchoconstriction and respiratory analeptic properties
Percentage of inhibition of the bronchoconstriction ([2]; bradykinine, 8 mg/kg i.v.): 75%
ED50 [6]: < 4 mg/kg
percentage of animals totally protected ([7]; 1.56 mg/kg p.o.): 50%
Duration ([7]; 100 mg/kg p.o.): > 6 h
Percentage of inhibition of the bronchoconstriction ([7]; 100 mg/kg p.o.): 100%
percentage of animals totally protected ([8]; 12.5 mg/kg p.o.): 50%
Duration of effect ([3]; 10 mg/kg i.v.): 25 min
respiratory analeptic activity (in words) [3]: considerable respiratory analeptic activity; also recorded: considerable anti-bronchoconstriction and respiratory analeptic properties
DI 50 [9]: 0.16 µg/mL
DI 50 [10]: 3.1 µg/mL
DI 50 [11]: 0.8 µg/mL
DI 50 [12]: 0.8 µg/mL
Anti-ulcerous action, Shay's ulcer (percentage of protection, quantal response) (Shay's ulcers; 50 mg/kg i.d.): 0
anti-ulcerous properties (in words) (Shay's ulcers): lower gastric antisecretory and anti-ulcerous activities
ED50 (gastric secretion [4]; read-out: Gastric antisecretory action, Free acid concentration, D.E. 50): 55 mg/kg
ED50 (gastric secretion [4]; read-out: Gastric antisecretory action, Free acid flow, D.E. 50): 15 mg/kg
ED50 (gastric secretion [4]; [15]): 11.5 mg/kg
gastric antisecretory properties (in words) (gastric secretion [4]): lower gastric antisecretory and anti-ulcerous activities
mortality (Acute toxicity, mouse; iv, 48 mg/kg, i.v., at 48 ± 2.5 mg/kg, read-out: Percentage mortality, intravenously): ~50%
LD50 (Acute toxicity, mouse; iv, read-out: Dose administered (mouse), intravenously, DE 50): 48 ± 2.5 mg/kg
mortality (Acute toxicity, mouse; [16]): 0%

O=C(CCn1c(CN2CCN(CC=Cc3ccccc3)CC2)nc2ccccc21)c1cccs1 [73 0466, dimaleate of 1-[2'(α -thienoyl)eth-1'yl]-2-(4"-cinnamylpiperazin 1"ylmethyl)benzimidazole]
ED50 ([5]; Cavia porcellus, histamine i.v., compound i.d., read-out: D.E. 50 (the source's name)): 25 mg/kg
Percentage of inhibition of the bronchoconstriction ([5]; 25 mg/kg i.d.): 50%
Anti-bronchoconstriction action, percentage [1, 17]: 95%
Duration of anti-bronchoconstriction action [1, 17]: > 30 min
Duration ([1]; acetylcholine, 100 mg/kg i.d.): 60 min
Percentage of inhibition of the bronchoconstriction ([1]; acetylcholine, 100 mg/kg i.d.): 100%
activity by route of administration [1, 14]: active in this same test, not only when administered intravenously but intraduodenally
anti-bronchoconstriction properties (in words) [1]: considerable anti-bronchoconstriction and respiratory analeptic properties
percentage of animals totally protected ([7]; 50 mg/kg p.o.): 67%
percentage of animals totally protected ([8]; 50 mg/kg p.o.): 100%
respiratory analeptic activity (in words) [3]: considerable anti-bronchoconstriction and respiratory analeptic properties
reduction of the area of the ulcerations (constraint ulcers; 5 mg/kg p.o., constraint for 7 hours): 78%
reduction of Shay's ulcer (area of ulcerations) (Shay's ulcers; 20 mg/kg i.d.): 80%
anti-ulcerous properties (in words) (Shay's ulcers): lower gastric antisecretory and anti-ulcerous activities
Gastric antisecretory action, Free acid concentration (gastric secretion [4]; 2 mg/kg i.d.): inactive
gastric antisecretory properties (in words) (gastric secretion [4]): lower gastric antisecretory and anti-ulcerous activities
mortality (Acute toxicity, mouse; [16]): 30%
reduction of the volume of the gastric secretion (gastric secretion [13]): 28%

prethcamide [MICORENE, reference compound]
Duration of effect ([3]; 10 mg/kg i.v.): 7 min

— patent US4029789A, “1-[2'-(α-Furoyl or α-thienoyl)eth-1'-yl]-2-(4"-cinnamyl piperazin-1"-yl methyl)benzimidazoles and method of using same” (Delalande S.A., priority 1974, dated 1977)
